Assay results reported in patent US12077503B2, “Substituted cyclic amides and their use as herbicides” (FMC CORPORATION, priority 2015, dated 2024).

Columns and labels:
Assay type in all cases: in vivo
[1] = system: giant foxtail (Setaria faberii); assay: Test A postemergence; conditions: postemergence
In short: (§1)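 Greenhouse, ~10 d after spray; visual injury vs untreated controls, 0 = no effect, 100 = complete control. Preemergence: directed soil spray over planted seeds. Postemergence: plants 2–10 cm, 1–2 leaf stage. Loam/sand blend. Compound in non-phytotoxic solvent with surfactant.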

[2] = system: pigweed (Amaranthus retroflexus); assay: Test A postemergence; conditions: postemergence
In short: as §1

[3] = system: barnyardgrass (Echinochloa crus-galli); assay: Test A postemergence; conditions: postemergence
In short: as §1

corn (Zea mays) [4] = assay: Test A postemergence; conditions: postemergence
In short: as §1

[5] = system: wheat (Triticum aestivum); assay: Test A postemergence; conditions: postemergence
In short: as §1

[6] = system: morningglory (Ipomoea spp.); assay: Test A postemergence; conditions: postemergence
In short: as §1

[7] = system: velvetleaf (Abutilon theophrasti); assay: Test A postemergence; conditions: postemergence
In short: as §1

[8] = system: crabgrass, large (Digitaria sanguinalis); assay: Test A postemergence; conditions: postemergence
In short: as §1

[9] = system: giant foxtail (Setaria faberii); assay: Test A preemergence; conditions: for Plant response rating, Foxtail, Giant: preemergence; for Foxtail, Giant plant response rating (0 to 100 scale): Preemergence, 1000 g ai/ha, 0 is no effect, 100 is complete control
In short: as §1

[10] = system: pigweed (Amaranthus retroflexus); assay: Test A preemergence; conditions: for Plant response rating, Pigweed: preemergence; for Pigweed plant response rating (0 to 100 scale): Preemergence, 1000 g ai/ha, 0 is no effect, 100 is complete control
[11] = system: barnyardgrass (Echinochloa crus-galli); assay: Test A preemergence; conditions: for Plant response rating, Barnyardgrass: preemergence; for Barnyardgrass plant response rating (0 to 100 scale): Preemergence, 1000 g ai/ha, 0 is no effect, 100 is complete control
In short: as §1

corn (Zea mays) [12] = assay: Test A preemergence; conditions: for Plant response rating, Corn: preemergence; for Corn plant response rating (0 to 100 scale): Preemergence, 1000 g ai/ha, 0 is no effect, 100 is complete control
In short: as §1

[13] = system: wheat (Triticum aestivum); assay: Test A preemergence; conditions: for Plant response rating, Wheat: preemergence; for Wheat plant response rating (0 to 100 scale): Preemergence, 1000 g ai/ha, 0 is no effect, 100 is complete control
In short: as §1

[14] = system: morningglory (Ipomoea spp.); assay: Test A preemergence; conditions: for Plant response rating, Morningglory: preemergence; for Morningglory plant response rating (0 to 100 scale): Preemergence, 1000 g ai/ha, 0 is no effect, 100 is complete control
In short: as §1

[15] = system: velvetleaf (Abutilon theophrasti); assay: Test A preemergence; conditions: for Plant response rating, Velvetleaf: preemergence; for Velvetleaf plant response rating (0 to 100 scale): Preemergence, 1000 g ai/ha, 0 is no effect, 100 is complete control
In short: as §1

[16] = system: crabgrass, large (Digitaria sanguinalis); assay: Test A preemergence; conditions: for Plant response rating, Crabgrass, Large: preemergence; for Crabgrass, Large plant response rating (0 to 100 scale): Preemergence, 1000 g ai/ha, 0 is no effect, 100 is complete control
In short: as §1

rice (Oryra sativa) = assay: Test B flooded paddy test; conditions: Flood, 250 g ai/ha; 0 to 100 scale where 0 is no effect and 100 is complete control; 13 to 15 d
In short: (§2)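 Greenhouse paddy pots with 2-leaf stage plants received compound by direct addition to floodwater 3 cm deep, kept at that level. Scored visually at 13–15 d versus controls (0 no effect; 100 complete control).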

[17] = system: sedge, umbrella (small-flower umbrella sedge, Cyperus difformis); assay: Test B flooded paddy test; conditions: Flood, 250 g ai/ha; scale of 0 to 100 where 0 is no effect and 100 is complete control
In short: as §2

[18] = system: barnyardgrass (Echinochloa crus-galli); assay: Test B flooded paddy test; conditions: Flood, 250 g ai/ha; 0 to 100 scale where 0 is no effect and 100 is complete control; 13 to 15 d
In short: as §2

[19] = system: ducksalad (Heteranthera limosa); assay: Test B flooded paddy test; conditions: Flood, 250 g ai/ha; 0 to 100 scale where 0 is no effect and 100 is complete control; 13 to 15 d
In short: as §2

[20] = 125 g ai/ha, visual injury after approximately 10 d, 0 to 100 scale (0 no effect, 100 complete control)
[21] = 500 g ai/ha, visual injury, 0 to 100 scale (0 no effect, 100 complete control), approx. 10 d
[22] = 125 g ai/ha, visual rating after approx. 10 d, 0 to 100 scale where 0 is no effect and 100 is complete control
[23] = 500 g ai/ha, 0 to 100 scale, 0 = no effect, 100 = complete control
[24] = 1000 g ai/ha, 0 to 100 scale, 0 no effect, 100 complete control

O=C1NCC(c2cccc(O)c2)C1C(=O)Nc1ccccc1F (racemic) [Compound 714]
Plant response rating, Foxtail, Giant [1, 20]: 0 | Plant response rating, Foxtail, Giant [1, 21]: 0 | Plant response rating, Pigweed [2, 20]: 0 | Plant response rating, Pigweed [2, 21]: 0 | Plant response rating, Barnyardgrass [3, 20]: 0 | Plant response rating, Barnyardgrass [3, 21]: 0 | Plant response rating, Corn (corn (Zea mays) [4]; [20]): 0 | Plant response rating, Corn (corn (Zea mays) [4]; [21]): 0 | Plant response rating, Wheat [5, 20]: 0 | Plant response rating, Wheat [5, 21]: 0 | Plant response rating, Morningglory [6, 20]: 0 | Plant response rating, Morningglory [6, 21]: 0 | Plant response rating, Velvetleaf [7, 20]: 0 | Plant response rating, Velvetleaf [7, 21]: 0 | Plant response rating, Crabgrass, Large [8, 20]: 0 | Plant response rating, Crabgrass, Large [8, 21]: 0 | Plant response rating, Foxtail, Giant [9, 22]: 0 | Plant response rating, Foxtail, Giant [9, 23]: 20 | Plant response rating, Pigweed [10, 22]: 0 | Plant response rating, Pigweed [10, 23]: 0 | Plant response rating, Barnyardgrass [11, 22]: 0 | Plant response rating, Barnyardgrass [11, 23]: 0 | Plant response rating, Corn (corn (Zea mays) [12]; [22]): 0 | Plant response rating, Corn (corn (Zea mays) [12]; [23]): 0 | Plant response rating, Wheat [13, 22]: 0 | Plant response rating, Wheat [13, 23]: 0 | Plant response rating, Morningglory [14, 22]: 0 | Plant response rating, Morningglory [14, 23]: 0 | Plant response rating, Velvetleaf [15, 22]: 0 | Plant response rating, Velvetleaf [15, 23]: 0 | Plant response rating, Crabgrass, Large [16, 22]: 20 | Plant response rating, Crabgrass, Large [16, 23]: 30 | Plant response rating, Rice (rice (Oryra sativa)): 0 | Sedge, Umbrella plant response rating [17]: 0 | Plant response rating, Barnyardgrass [18]: 0 | Plant response rating, Ducksalad [19]: 0

O=C1NCC(c2cccc(O)c2)C1C(=O)Nc1cccc(F)c1F (racemic) [Compound 715]
Plant response rating, Foxtail, Giant [1, 20]: 0 | Plant response rating, Foxtail, Giant [1, 21]: 0 | Plant response rating, Pigweed [2, 20]: 0 | Plant response rating, Pigweed [2, 21]: 0 | Plant response rating, Barnyardgrass [3, 20]: 0 | Plant response rating, Barnyardgrass [3, 21]: 0 | Plant response rating, Corn (corn (Zea mays) [4]; [20]): 0 | Plant response rating, Corn (corn (Zea mays) [4]; [21]): 0 | Plant response rating, Wheat [5, 20]: 0 | Plant response rating, Wheat [5, 21]: 0 | Plant response rating, Morningglory [6, 20]: 0 | Plant response rating, Morningglory [6, 21]: 0 | Plant response rating, Velvetleaf [7, 20]: 0 | Plant response rating, Velvetleaf [7, 21]: 0 | Plant response rating, Crabgrass, Large [8, 20]: 0 | Plant response rating, Crabgrass, Large [8, 21]: 0 | Plant response rating, Foxtail, Giant [9, 22]: 0 | Plant response rating, Foxtail, Giant [9, 23]: 0 | Plant response rating, Pigweed [10, 22]: 0 | Plant response rating, Pigweed [10, 23]: 0 | Plant response rating, Barnyardgrass [11, 22]: 0 | Plant response rating, Barnyardgrass [11, 23]: 0 | Plant response rating, Corn (corn (Zea mays) [12]; [22]): 0 | Plant response rating, Corn (corn (Zea mays) [12]; [23]): 0 | Plant response rating, Wheat [13, 22]: 0 | Plant response rating, Wheat [13, 23]: 0 | Plant response rating, Morningglory [14, 22]: 0 | Plant response rating, Morningglory [14, 23]: 0 | Plant response rating, Velvetleaf [15, 22]: 0 | Plant response rating, Velvetleaf [15, 23]: 0 | Plant response rating, Crabgrass, Large [16, 22]: 0 | Plant response rating, Crabgrass, Large [16, 23]: 0 | Plant response rating, Rice (rice (Oryra sativa)): 0 | Sedge, Umbrella plant response rating [17]: 0 | Plant response rating, Barnyardgrass [18]: 0 | Plant response rating, Ducksalad [19]: 0

Nc1c(NC(=O)C2C(=O)NCC2c2ccc(F)c(F)c2)cccc1[N+](=O)[O-] (racemic) [Compound 357]
Plant response rating, Foxtail, Giant [1, 24]: 0 | Plant response rating, Pigweed [2, 24]: 0 | Plant response rating, Barnyardgrass [3, 24]: 0 | Plant response rating, Corn (corn (Zea mays) [4]; [24]): 0 | Plant response rating, Wheat [5, 24]: 0 | Plant response rating, Morningglory [6, 24]: 0 | Plant response rating, Velvetleaf [7, 24]: 0 | Plant response rating, Crabgrass, Large [8, 24]: 0 | Foxtail, Giant plant response rating (0 to 100 scale) [9]: 0 | Pigweed plant response rating (0 to 100 scale) [10]: 0 | Barnyardgrass plant response rating (0 to 100 scale) [11]: 0 | Corn plant response rating (0 to 100 scale) (corn (Zea mays) [12]): 0 | Wheat plant response rating (0 to 100 scale) [13]: 0 | Morningglory plant response rating (0 to 100 scale) [14]: 0 | Velvetleaf plant response rating (0 to 100 scale) [15]: 0 | Crabgrass, Large plant response rating (0 to 100 scale) [16]: 0

Cc1cccc(NC(=O)C2C(=O)NCC2c2ccc(F)c(F)c2)c1N (racemic) [Compound 355]
Plant response rating, Foxtail, Giant [1, 24]: 0 | Plant response rating, Pigweed [2, 24]: 0 | Plant response rating, Barnyardgrass [3, 24]: 0 | Plant response rating, Corn (corn (Zea mays) [4]; [24]): 0 | Plant response rating, Wheat [5, 24]: 0 | Plant response rating, Morningglory [6, 24]: 0 | Plant response rating, Velvetleaf [7, 24]: 0 | Plant response rating, Crabgrass, Large [8, 24]: 0 | Foxtail, Giant plant response rating (0 to 100 scale) [9]: 0 | Pigweed plant response rating (0 to 100 scale) [10]: 0 | Barnyardgrass plant response rating (0 to 100 scale) [11]: 0 | Corn plant response rating (0 to 100 scale) (corn (Zea mays) [12]): 0 | Wheat plant response rating (0 to 100 scale) [13]: 0 | Morningglory plant response rating (0 to 100 scale) [14]: 0 | Velvetleaf plant response rating (0 to 100 scale) [15]: 0 | Crabgrass, Large plant response rating (0 to 100 scale) [16]: 0
